Reference: patent US20110053919A1, “Active Compound Combinations Having Insecticidal and Acaricidal Properties” (BAYER CROPSCIENE AG, priority 2006, published 2011)

How the values were obtained:
Type in all cases: in vivo
[1] = tested on: larvae of the army worm (Spodoptera frugiperda); assay: Spodoptera frugiperda larvae test (sprayed cabbage leaves); conditions: single active compound
Text: (§1) The expected action for a given combination of two active compounds can be calculated as follows, according to S. R. Colby, Weeds 15 (1967), 20-22:
(§2) • X is the kill rate, expressed as a percentage of the untreated control, when employing active compound A at an application rate of m g/ha or in a concentration of m ppm, • Y is the kill rate, expressed as a percentage of the untreated control, when employing active compound B at an application rate of n g/ha or in a concentration of n ppm and • E is the kill rate, expressed as a percentage of the untreated control, when employing active compounds A and B at application rates of m and n g/ha or in a concentration of m and n ppm, then
(§3) If the actual kill rate exceeds the calculated value, the kill of the combination is superadditive, i.e. a synergistic effect is present. In this case, the actually observed kill rate must exceed the value calculated using the above formula for the expected kill rate (E).
Spodoptera frugiperda Larvae Test
(§4) Solvents: 78 parts by weight of acetone • • 1.5 parts by weight of dimethylformamide Emulsifier: 0.5 part by weight of alkylaryl polyglycol ether
(§5) To produce a suitable preparation of active compound, 1 part by weight of active compound is mixed with the stated amounts of solvents and emulsifier, and the concentrate is diluted with emulsifier-containing water to the desired concentration.
Cabbage leaves (Brassica oleracea) are treated by spraying with the active compound preparation of the desired concentration and are populated with larvae of the army worm (Spodoptera frugiperda) while the leaves are still moist.
After the desired period of time, the kill in % is determined. 100% means that all caterpillars have been killed; 0% means that none of the caterpillars have been killed. The kill rates determined are entered into Colby's formula.

[2] = tested on: greenhouse red spider mite (Tetranychus urticae); assay: Tetranychus test, OP-resistant/spray treatment (bean leaf disks); conditions: 0.16 g/ha, single active compound
Text: as §1, §2, §3
OP-Resistant/Spray Treatment
as §4, §5
Disks of bean leaves (Phaseolus vulgaris) which are infested by all stages of the greenhouse red spider mite (Tetranychus urticae) are sprayed with an active compound preparation of the desired concentration.
After the desired period of time, the activity in % is determined. 100% means that all spider mites have been killed; 0% means that none of the spider mites have been killed.

[3] = tested on: larvae of the mustard beetle (Phaedon cochleariae); assay: Phaedon cochleariae larvae test (sprayed cabbage leaves); conditions: 100 g/ha, single active compound
Text: as §1, §2, §3
Phaedon cochleariae Larvae Test
as §4, §5
Cabbage leaves (Brassica oleracea) are treated by spraying with the active compound preparation of the desired concentration and are populated with larvae of the mustard beetle (Phaedon cochleariae) while the leaves are still moist.
After the desired period of time, the kill in % is determined. 100% means that all beetle larvae have been killed; 0% means that none of the beetle larvae have been killed. The kill rates determined are entered into Colby's formula.

[4] = tested on: green peach aphid (Myzus persicae); assay: Myzus persicae test (spray treatment of infested cabbage leaves); conditions: single active compound
Text: as §1, §2, §3, §4, §5
Cabbage leaves (Brassica oleracea) which are heavily infested by the green peach aphid (Myzus persicae) are treated by spraying with the active compound preparation of the desired concentration.
After the desired period of time, the kill in % is determined. 100% means that all aphids have been killed; 0% means that none of the aphids have been killed. The kill rates determined are entered into Colby's formula.

SMILES | Kill in % after 2d ([1]; 20 g/ha) [%] | Kill in % after 6d [2] [%] | Kill in % after 2d [3] [%] | Kill in % after 1d ([4]; 0.8 g/ha) [%] | Kill in % after 1d ([4]; 4 g/ha) [%] | Kill in % after 1d ([4]; 20 g/ha) [%] | Kill in % after 1d ([4]; 100 g/ha) [%] | Kill in % after 2d ([1]; 100 g/ha) [%]
Cc1ccc(/N=C/N(C)/C=N/c2ccc(C)cc2C)c(C)c1 [amitraz] | 0 | 0 |  |  |  |  |  | 
CC(C)N1C(=O)N(c2ccccc2)CS/C1=N\C(C)(C)C [buprofezin] |  |  | 0 |  |  |  |  | 
CCOC(=O)OC1=C(c2cc(C)ccc2C)C(=O)N[C@]12CC[C@@H](OC)CC2 [compound (II)] | 17 | 10 | 0 | 0 | 0 | 0 |  | 
CCOC(=O)OC1=C(c2cc(C)ccc2C)C(=O)NC12CCC(OC)CC2 (centres unmarked) [compound (IIa)] | 17 | 10 | 0 | 0 | 0 | 0 |  | 
N#CCNC(=O)c1cnccc1C(F)(F)F [flonicamid] |  |  | 0 |  |  |  | 30 | 
CC1=NNC(=O)N(/N=C/c2cccnc2)C1 [pymetrozine] |  |  |  | 40 |  |  |  | 
CC(COc1ccc(Oc2ccccc2)cc1)Oc1ccccn1 (centres unmarked) [pyriproxifen, pyriproxyfen] |  |  |  |  |  |  | 0 | 0
